# Data reported in US11959096B2, “Methods for selective inhibition of pluripotent stem cells” (THE MEDICAL COLLEGE OF WISCONSIN, INC., priority 2014, dated 2024).
# Assays:
# [1] = system: confluent hiPSC (DF6-9-9T); experiment: Bright field imaging of cell morphology; type: cell-based, human
# Procedure: (§1) In Vitro Toxicity Assays: Treatment with small molecules or glucose deprivation was initiated in hESC or hiPSC at 24 and 96 h post-plating and in vitro toxicity assays were performed at specified treatment endpoints 24-96 hours after treatment initiation. […] Neutral red assays for cell viability were performed as previously described. In vitro cell death was determined using SYTOX® Green nucleic acid stain (Life Technologies). Briefly, cells were incubated in 5 μM SYTOX® Green for 30 minutes at 37° C. in a humidified cell incubator with 5% CO2. Percent cell viability was determined by normalizing to replicate cells incubated with 120 μM digitonin (Sigma-Aldrich) and 5 μM SYTOX® Green. Imaging of cell viability was performed using Live/Dead® Viability/Cytotoxicity Kit, for mammalian cells (Life Technologies). Cells were stained for 20 minutes at room temperature with 4 μM Calcein AM to detect viable cells and 2 μM Ethidium Homodimer 1 to detect cells with compromised membranes. Representative images of alterations in cell morphology were acquired on confluent hPSC 24-72 hours after treatment initiation. Imaging was performed with a Nikon Ti-U inverted microscope.
# [2] = system: DF6-9-9T hiPSC-derived cardiomyocytes; experiment: Neutral red viability assay in hiPSC-derived cardiomyocytes; type: cell-based; settings: 24 hour pulse treatment
# Procedure: as §1
# confluent hiPSC = experiment: Colony formation assay (alkaline phosphatase staining); type: cell-based, human; settings: for colony formation: 24 hours treatment, no passaging, six days
# Procedure: The first iteration was adapted from previously described method, after 24 hours of treatment, hiPSC were detached with Accutase (StemCell Technologies), re-suspended in E8, passed though 12×75 mm tube with cell strainer cap (Falcon), and plated at 5e4 live cells per 2 cm^2. Media were changed every 48 hours and cells were cultured for six days, at which time staining for alkaline phosphatase was performed with leukocyte alkaline phosphatase kit (Sigma-Aldrich) as described and plates were visually inspected for phosphatase-positive colonies. This strategy represents the most common implementation of the colony formation assay. However, concerns regarding the cell death normally encountered during passaging prompted another approach for stricter assessment. In the second iteration, cells were treated for 24 hours, washed twice with 0.5 mL D-PBS, and media refreshed with E8. Thereafter, media were replaced daily for six days at which point staining for alkaline phosphatase activity was performed. […] Elimination of hiPSC from co-cultures with differentiated cells was performed with human fibroblasts and day 10 cardiomyocytes derived from hiPSC. hiPSC (DF6-9-9T) were plated at concentrations ranging from 100-10,000 live cells per well with human fibroblasts (1.75e5 cells) or day 10 differentiated cardiomyocytes (3.75e5 cells) in E8 and Y-27632 per 9.6 cm^2. […] Six days after plating, staining for alkaline phosphatase activity was performed. […] Imaging of wells was performed with a Sony Cyber-shot DSC-TX30 and individual colonies with a Nikon stereoscope.
# [3] = system: mesenchymal stem cells, fibroblasts, retinal pigmented epithelial cells, hiPSC-derived cardiomyocytes, specified hepatic endoderm cells, neural progenitors; type: cell-based; settings: 2.5 μM for 72 hours
# Procedure: (C) Human iPSC-derived neural progenitors were treated with 2.5 μM for 72 hours and assessed by MTT assay (top; day 10 and day 12 progenitors) and immunofluorescence (bottom; day 12 progenitors shown).
# Viability measurements were consistent with these visual observations. See data for cardiomyocytes, neural progenitors, and fibroblasts in FIGS. 8B-C). […] See Boheler et al., Stem Cell Reports 3, 185-203 (2014).
# hiPSC [4] = experiment: Live/dead staining (calcein AM / ethidium homodimer-1); type: cell-based, human
# Procedure: as §1
# hiPSC [5] = experiment: Extracellular flux analysis (ECAR, OCR); type: cell-based, human
# Procedure: Extracellular Flux Analysis: hiPSC were plated at 6e4 cells per well on specialized microplate (Seahorse Bioscience) as previously described with several exceptions. Extracellular flux analysis was performed on hiPSC 48 hours post-plating using Seahorse Bioscience XF24 Analyzer. […] The microplate was equilibrated in non-CO2 incubator for 1.5 h, and analyzed for 16 h in Seahorse Bioscience XF24 Analyzer. Assay medium consists of basal E8 reagents with the following exceptions: basal DMEM F-12 without phenol red (Gibco), no sodium bicarbonate, and 2.5 mM GlutaMAX™ (Gibco) and 15 mM Hepes (Gibco). Assay medium was adjusted to pH 7.4 at 37° C. prior to use. Extracellular acidification rate (ECAR) and basal oxygen consumption rate (OCR) were collected approximately every 60 minutes. Treatments were normalized to baseline media control value and are represented as average of thee biological replicates.
# human fibroblasts [6] = settings: treatment time extended to 72 hours; previous report [19]; cited from earlier work
# [7] = system: PAX6 positive neural progenitor cells; type: cell-based
# Excerpt: (§2) Data expressed as mean+S.D. (n=4); p<0.05, **p<0.01, ***p<0.001. […] Data expressed as mean+S.D. (n=4), *p<0.05, **p<0.01, ***p<0.001.
# hiPSC [8] = experiment: Nucleotide pool measurements (HPLC); type: cell-based, human
# Procedure: Nucleotide Pool Measurements: ATP, ADP, AMP, and NAD^+ were extracted using perchloric acid precipitation and analyzed using HPLC, following a previously published method. ATP, ADP, AMP and NAD^+ peaks were measured for each sample, compared with the standards, and normalized to protein levels.
# sub-confluent hiPSC = experiment: Glucose uptake assay ([3H]2-deoxyglucose); type: cell-based, human
# Procedure: For 1 hour treatment, cells were placed in Krebs-Ringer Hepes (KRH) containing treatment at 37° C. in a humidified cell incubator with 5% CO2. For 15, 18, and 24 hour treatments, cells were treated in E8 medium for 14, 17, and 23 hours, respectively, at which point media was changed to KRH buffer containing specific treatment for 1 hour. After specified treatment time, glucose uptake was performed with 0.5 μCi [^3H]2-deoxyglucose for 5 min at 37° C. as previously described. Uptake data were normalized to protein concentration measured with Lowry method.
# human fibroblasts [9] = experiment: Neutral red viability assay in fibroblasts; type: cell-based; settings: 24 hour treatment, 100 μM
# ARPE-19 = experiment: Viability and morphology of retinal pigmented epithelial cells; type: cell-based
# Excerpt: as §2
# [10] = short term treatment (24 hours), 2.5 μM
structure (smiles),measurement,setting,value
"CC(C)(C)c1ccc(S(=O)(=O)NCc2ccc(C(=O)Nc3cccnc3)cc2)cc1 [STF-31, 4-[[[[4-(1,1-Dimethylethyl)phenyl]sulfonyl]amino]methyl]-N-3-pyridinyl-benzamide]",morphology of hiPSC,"[1]; 2.5 μM STF-31, 24 hour incubation",did not modify the morphology
same,morphology of hiPSC,"[1]; 2.5 μM STF-31, 48 hour treatment","patches of diminished, non-adherent cells and reduction in overall cell number"
same,morphology of hiPSC,"[1]; 72 hours, 2.5 μM STF-31, 30 μM WZB117, 20 μM PluriSIn",highly toxic
same,LD50,[2],40 µM
same,LD50 cardiomyocytes relative to hiPSC,[2],22 fold
same,formation of alkaline phosphatase-positive colonies,"confluent hiPSC; 24 hour pulse, cells passaged, cultured 6 days",prevented the formation of alkaline phosphatase-positive colonies
same,colony formation,confluent hiPSC; 2.5 μM STF-31,a limited number of colonies formed
same,colony formation,confluent hiPSC; 5 μM STF-31,no colonies were observed
same,visible changes in morphology or cell death,[3],None of these cell types exhibited visible changes in morphology or obvious cell death
same,live/dead staining,"hiPSC [4]; 48 hours, 2.5 μM STF-31",small patches of live cells remained
same,live/dead staining,"hiPSC [4]; 72 hours, confluent, 2.5 μM STF-31, 30 μM WZB117, 20 μM PluriSIn",not visible
same,delay of decrease in ECAR compared to inhibitors of glucose oxidation,hiPSC [5]; 2.5 μM STF-31,up to 15 hours
same,time before reductions in OCR,"hiPSC [5]; 2.5 μM STF-31, 30 μM WZB117",15 h
same,cell viability,human fibroblasts [6],did not result in a decrease in cell viability
same,viability (MTT) and immunofluorescence compared with controls,"[7]; 2.5 μM for 72 hours, day 10 and day 12 progenitors",indistinguishable from controls
same,toxicity,[7]; [10],does not result in significant toxicity
same,time until ATP levels decrease,hiPSC [8]; 2.5 μM STF-31,18 h
same,NAD+ levels,"hiPSC [8]; 2.5 μM STF-31, by 3 hours",−50%
same,NAD+ levels,"hiPSC [8]; 2.5 μM STF-31, by 18 hours",< 1%
same,first time point with decrease in glucose uptake,sub-confluent hiPSC; 2.5 μM STF-31,18 h
same,decrease in glucose uptake,"sub-confluent hiPSC; 1 hour of treatment, 2.5 μM STF-31, 30 μM WZB117",did not alter glucose uptake
same,reduction of fibroblast viability,human fibroblasts [9],30%
same,ARPE cell morphology or viability,ARPE-19; 2.5 μM for up to 72 hours,no adverse effects
same,toxicity,ARPE-19; [10],does not result in significant toxicity
same,cell viability,"ARPE-19; treatment time extended to 72 hours, data not shown",did not result in a decrease in cell viability
